Test results published in patent publication US10947252B2, “Inhibitors of KEAP1-Nrf2 protein-protein interaction” (Janssen Pharmaceutica NV, priority 2018, dated 2021).

What was measured:
[1] = target: Kelch domain of human KEAP1 (321-624 aa) (Homo sapiens (Human), UniProt Q14145); experiment: KEAP1 KELCH ThermoFluor binding assay; settings: KEAP Kelch […], 1,8-ANS, pH 7.0, average of results obtained, read-out: Tf Kd;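 note: Ligand-induced melting temperature shift of E. coli-expressed KEAP1 Kelch protein, Kd estimated from concentration-response curves of ΔTm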
[2] = tested on: Glo-Response ARE-luc2P HEK293 cell line; experiment: ARE luciferase reporter cell-based assay; settings: Homo sapiens, HEK293, 24 h, average of results obtained;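 note: luciferase signal tracks Nrf2 activation of the ARE once compounds disrupt KEAP1-Nrf2 binding, read with One-Glo reagent, DMSO serving as low control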

Sequence of Kelch domain of human KEAP1 (321-624 aa) (Q14145 321-624): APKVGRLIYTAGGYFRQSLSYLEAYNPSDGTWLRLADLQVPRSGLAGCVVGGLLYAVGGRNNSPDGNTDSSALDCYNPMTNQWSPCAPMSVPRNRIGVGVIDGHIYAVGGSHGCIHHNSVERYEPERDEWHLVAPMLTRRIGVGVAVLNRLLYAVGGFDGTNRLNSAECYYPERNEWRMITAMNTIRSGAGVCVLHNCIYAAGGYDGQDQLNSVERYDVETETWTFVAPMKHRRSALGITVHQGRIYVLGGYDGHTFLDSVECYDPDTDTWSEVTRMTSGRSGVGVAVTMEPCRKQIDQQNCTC

Kd [1] [nM] | Structure (SMILES) | EC50 [2] [nM]
< 1 | CC[C@@H]1CN(Cc2cc(C(CC(=O)O)c3ccn4c(C(F)F)nnc4c3C)ccc2C)S(=O)(=O)c2cccnc2O1 (mixture of isomers) [Example 463, 3-(3-(Difluoromethyl)-8-methyl-[1,2,4]triazolo[4,3-a]pyridin-7-yl)-3-(3-(((R)-4-ethyl-1,1-dioxido-3,4-dihydro-2H-pyrido[2,3-b][1,4,5]oxathiazepin-2-yl)methyl)-4-methylphenyl)propanoic Acid] | 27.6
< 1 | Cc1ccc(C(CC(=O)O)c2ccn3c(C(F)F)nnc3c2C)cc1CN1C[C@@H]2CCCN2c2ncc(C#N)cc2S1(=O)=O (mixture of isomers) [Example 542, 3-(3-(((S)-3-Cyano-5,5-dioxido-7a,8,9,10-tetrahydropyrido[2,3-f]pyrrolo[2,1-d][1,2,5]thiadiazepin-6(7H)-yl)methyl)-4-methylphenyl)-3-(3-(difluoromethyl)-8-methyl-[1,2,4]triazolo[4,3-a]pyridin-7-yl)propanoic Acid] | 59.6
< 1 | Cc1ccc(C(c2ccn3c(C(F)(F)F)nnc3c2C)C(C)(C)C(=O)O)cc1CN1CC2(CCOCC2)Oc2nc(OCCN3CCOCC3)ccc2S1(=O)=O (racemic) [Example 46] | 71.9
< 1 | Cc1ccc(C(c2ccn3c(C(F)F)nnc3c2C)C(C)(C)C(=O)O)cc1CN1CC2(CCOCC2)Oc2ncccc2S1(=O)=O (racemic) [Example 52, (R/S)-3-(3-(Difluoromethyl)-8-methyl-[1,2,4]triazolo[4,3-a]pyridin-7-yl)-3-(3-((1′,1′-dioxido-2,3,5,6-tetrahydrospiro[pyran-4,4′-pyrido[2,3-b][1,4,5]oxathiazepin]-2′(3′H)-yl)methyl)-4-methylphenyl)-2,2-dimethylpropanoic Acid] | 8.2
< 1 | Cc1cnc(C(c2ccn3c(C(F)(F)F)nnc3c2C)C(C)(C)C(=O)O)cc1CN1CC2(CCOCC2)Oc2ncccc2S1(=O)=O (racemic) [Example 55, (R/S)-3-(4-((1′,1′-Dioxido-2,3,5,6-tetrahydrospiro[pyran-4,4′-pyrido[2,3-b][1,4,5]oxathiazepin]-2′(3′H)-yl)methyl)-5-methylpyridin-2-yl)-2,2-dimethyl-3-(8-methyl-3-(trifluoromethyl)-[1,2,4]triazolo[4,3-a]pyridin-7-yl)propanoic Acid] | 124
2.4 | CCn1nnc2c(C)c(C(c3cnc(C)c(CN4CC5(CCOCC5)Oc5ncccc5S4(=O)=O)c3)C(C)(C)C(=O)O)ccc21 (racemic) [Example 58, (R/S)-3-(5-((1′,1′-Dioxido-2,3,5,6-tetrahydrospiro[pyran-4,4′-pyrido[2,3-b][1,4,5]oxathiazepin]-2′(3′H)-yl)methyl)-6-methylpyridin-3-yl)-3-(1-ethyl-4-methyl-1H-benzo[d][1,2,3]triazol-5-yl)-2,2-dimethylpropanoic Acid] | 226
< 1 | CCn1nnc2c(C)c(C(c3cnc(C)c(CN4CC5(CCOCC5)Oc5ncc(C)cc5S4(=O)=O)c3)C(C)(C)C(=O)O)ccc21 (racemic) [Example 61, (R/S)-3-(1-Ethyl-4-methyl-1H-benzo[d][1,2,3]triazol-5-yl)-2,2-dimethyl-3-(6-methyl-5-((8′-methyl-1′,1′-dioxido-2,3,5,6-tetrahydrospiro[pyran-4,4′-pyrido[2,3-b][1,4,5]oxathiazepin]-2′(3′H)-yl)methyl)pyridin-3-yl)propanoic Acid] | 41.7
< 1 | Cc1ccc(C(CC(=O)O)c2ccn3c(C)nnc3c2)cc1CN1CC(C)(C)Oc2ncccc2S1(=O)=O (racemic) [Example 160, (R/S)-3-(3-((4,4-Dimethyl-1,1-dioxido-3,4-dihydro-2H-pyrido[2,3-b][1,4,5]oxathiazepin-2-yl)methyl)-4-methylphenyl)-3-(3-methyl-[1,2,4]triazolo[4,3-a]pyridin-7-yl)propanoic Acid] | 19000
2.8 | Cc1ccc(C(CC(=O)O)c2ccn3c(C)nnc3c2)cc1CN1CC(C)(C)Oc2ccccc2S1(=O)=O (racemic) [Example 161, (R/S)-3-(3-((4,4-Dimethyl-1,1-dioxido-3,4-dihydro-2H-benzo[b][1,4,5]oxathiazepin-2-yl)methyl)-4-methylphenyl)-3-(3-methyl-[1,2,4]triazolo[4,3-a]pyridin-7-yl)propanoic Acid] | 15900
49 | Cc1ccc(C(CC(=O)O)c2ccn3c(C(F)(F)F)nnc3c2C)cc1CN1C[C@@H]2CN(C)CCN2c2ncccc2S1(=O)=O (mixture of isomers) [Example 177, (R/S)-3-(4-Methyl-3-(((*S)-9-methyl-5,5-dioxido-7,7a,8,9,10,11-hexahydro-6H-pyrazino[2,1-d]pyrido[2,3-f][1,2,5]thiadiazepin-6-yl)methyl)phenyl)-3-(8-methyl-3-(trifluoromethyl)-[1,2,4]triazolo[4,3-a]pyridin-7-yl)propanoic Acid] | 1390
190 | Cc1ccc(C(CC(=O)O)c2ccn3c(C(F)(F)F)nnc3c2C)cc1CN1C[C@H]2CN(C)CCN2c2ncccc2S1(=O)=O (mixture of isomers) [Example 180, (R/S)-3-(4-Methyl-3-(((*R)-9-methyl-5,5-dioxido-7,7a,8,9,10,11-hexahydro-6H-pyrazino[2,1-d]pyrido[2,3-f][1,2,5]thiadiazepin-6-yl)methyl)phenyl)-3-(8-methyl-3-(trifluoromethyl)-[1,2,4]triazolo[4,3-a]pyridin-7-yl)propanoic Acid] | 2880
1.6 | Cc1ccc(C(CC(=O)O)c2ccn3c(C(F)(F)F)nnc3c2C)cc1CN1CC2(CC2)N(C)c2ncccc2S1(=O)=O (racemic) [Example 183, (R/S)-3-(4-Methyl-3-((5′-methyl-1′,1′-dioxido-5′H-spiro[cyclopropane-1,4′-pyrido[2,3-f][1,2,5]thiadiazepin]-2′(3′H)-yl)methyl)phenyl)-3-(8-methyl-3-(trifluoromethyl)-[1,2,4]triazolo[4,3-a]pyridin-7-yl)propanoic Acid] | 370
< 1 | Cc1ccc(C(CC(=O)O)c2ccc3c(nnn3C3CC3)c2C)cc1CN1CC2(COC2)Oc2ccccc2S1(=O)=O (racemic) [Example 214, (R/S)-3-(1-Cyclopropyl-4-methyl-1H-benzo[d][1,2,3]triazol-5-yl)-3-(3-((1,1-dioxidospiro[benzo[b][1,4,5]oxathiazepine-4,3′-oxetan]-2(3H)-yl)methyl)-4-methylphenyl)propanoic Acid] | 5.1
< 1 | Cc1ccc(C(CC(=O)O)c2ccc3c(nnn3C3CC3)c2C)cc1CN1C[C@@H]2CCCCN2c2ccccc2S1(=O)=O (mixture of isomers) [Example 217, (R/S)-3-(1-Cyclopropyl-4-methyl-1H-benzo[d][1,2,3]triazol-5-yl)-3-(3-(((*S)-5,5-dioxido-7,7a,8,9,10,11-hexahydro-6H-benzo[f]pyrido[2,1-d][1,2,5]thiadiazepin-6-yl)methyl)-4-methylphenyl)propanoic Acid] | 11
< 1 | Cc1ccc(C(CC(=O)O)c2ccc3c(nnn3C3CC3)c2C)cc1CN1C[C@]2(C)CCCN2c2ncccc2S1(=O)=O (mixture of isomers) [Example 218, (R/S)-3-(1-Cyclopropyl-4-methyl-1H-benzo[d][1,2,3]triazol-5-yl)-3-(4-methyl-3-(((*S)-7a-methyl-5,5-dioxido-7a,8,9,10-tetrahydropyrido[2,3-f]pyrrolo[2,1-d][1,2,5]thiadiazepin-6(7H)-yl)methyl)phenyl)propanoic Acid] | 6.6
19 | Cc1ccc(C(CC(=O)O)c2ccc3c(nnn3C3CC3)c2C)cc1CN1C[C@@]2(C)CCCN2c2ncccc2S1(=O)=O (mixture of isomers) [Example 221, (R/S)-3-(1-Cyclopropyl-4-methyl-1H-benzo[d][1,2,3]triazol-5-yl)-3-(4-methyl-3-(((*R)-7a-methyl-5,5-dioxido-7a,8,9,10-tetrahydropyrido[2,3-f]pyrrolo[2,1-d][1,2,5]thiadiazepin-6(7H)-yl)methyl)phenyl)propanoic Acid] | 580
< 1 | Cc1cnc2c(c1)S(=O)(=O)N(Cc1cc(C(c3ccc4c(nnn4C4CC4)c3C)C(C)(C)C(=O)O)cnc1C)CC1(CCOCC1)O2 (racemic) [Example 227, (R/S)-3-(1-Cyclopropyl-4-methyl-1H-benzo[d][1,2,3]triazol-5-yl)-2,2-dimethyl-3-(6-methyl-5-((8′-methyl-1′,1′-dioxido-2,3,5,6-tetrahydrospiro[pyran-4,4′-pyrido[2,3-b][1,4,5]oxathiazepin]-2′(3′H)-yl)methyl)pyridin-3-yl)propanoic Acid] | 22
< 1 | Cc1ccc(C(CC(=O)O)c2ccc3c(nnn3CC3CC3)c2C)cc1CN1C[C@@H]2CCCCN2c2ncccc2S1(=O)=O (mixture of isomers) [Example 231, (R/S)-3-(1-(Cyclopropylmethyl)-4-methyl-1H-benzo[d][1,2,3]triazol-5-yl)-3-(3-(((*S)-5,5-dioxido-7,7a,8,9,10,11-hexahydro-6H-dipyrido[2,1-d:2′,3′-f][1,2,5]thiadiazepin-6-yl)methyl)-4-methylphenyl)propanoic Acid] | 7
< 1 | Cc1ccc(C(CC(=O)O)c2ccc3c(nnn3CC3CC3)c2C)cc1CN1C[C@H]2CCCCN2c2ncccc2S1(=O)=O (mixture of isomers) [Example 234, (R/S)-3-(1-(Cyclopropylmethyl)-4-methyl-1H-benzo[d][1,2,3]triazol-5-yl)-3-(3-(((*R)-5,5-dioxido-7,7a,8,9,10,11-hexahydro-6H-dipyrido[2,1-d:2′,3′-f][1,2,5]thiadiazepin-6-yl)methyl)-4-methylphenyl)propanoic Acid] | 3.3
< 1 | CCn1nnc2c(C)c(C(CC(=O)O)c3ccc(C)c(CN4CC5(COC5)Oc5ncccc5S4(=O)=O)n3)ccc21 (racemic) [Example 240, (R/S)-3-(6-((1′,1′-Dioxidospiro[oxetane-3,4′-pyrido[2,3-b][1,4,5]oxathiazepin]-2′(3′H)-yl)methyl)-5-methylpyridin-2-yl)-3-(1-ethyl-4-methyl-1H-benzo[d][1,2,3]triazol-5-yl)propanoic Acid] | 85
